# Patent US20050192244A1, “Histamine release inhibitor” (priority 2002, published 2005)
# Test system: mast cells
# Test: Inhibitory effect on histamine release from rat peritoneal mast cells stimulated with compound 48/80 (histamine by HPLC, diazotation method)
# Format: cell-based
# Conditions: histamine release induced by compound 48/80, mean of three measurements; for inhibition at 10 µg/mL: sample concentration 10 μg/ml
# Text: (1) With regard to the following substances, an inhibitory effect on type I allergic reaction was investigated by investigating an inhibitory effect on histamine release from mast cells. • <1> Adenosine • <2> Guanosine • <3> Cytidine • <4> Uridine • <5> Adenosine monophosphate (AMP) • <6> Adenosine diphosphate (ADP) • <7> Adenosine triphosphate (ATP) • <8> Adenosine derived from Phellinus linteus (described later as Compound A) • <9> N-hydroxy-N-methyl-adenosine derived from Phellinus linteus (described later as Compound B) • <10> A commercially available histamine inhibitor (brand name: Intal, major component: disodium cromoglycate, manufacturer: Fujisawa Pharmaceutical Co., Ltd.)
# (a) For a test animal, a male Wister rat (at 6 to 8 weeks of age) was used.
# After a rat was sacrificed by exsanguination under anesthesia with ether, 15 ml of Tyrode Buffer was injected into the peritoneal cavity of the rat and intraperitoneal cavity fluid was recovered. Ten ml of Tyrode Buffer was further injected into the peritoneal cavity of the rat. Intraperitoneal cavity fluid was further recovered and combined with the intraperitoneal fluid recovered before. This intraperitoneal fluid was centrifuged at 800 rpm for 10 minutes at 4° C. and the supernatant was removed and filtrated.
# Further, cell suspension, to which Tyrode Buffer was added, was centrifuged at 800 rpm for 10 minutes at 4° C., the supernatant was removed and the cells were homogenized. This cell suspension was measured with an erythrocytometer, and prepared to be 8×10^6 cells/ml for use.
# The cell suspension (370 μl) dispensed into a 1.2 ml-microtube was pre-incubated in a water bath at 37° C.
# Ten minutes later, 20 μl of sample prepared at each concentration was added.
# Further, 10 minutes later, 10 μl of compound 48/80 (a mast cell stimulation agent; manufactured by Wako Pure Chemical Industries, Ltd.) (0.5 μg/ml), which is an allergy inducer, was added.
# Fifteen minutes later, the reaction was terminated on ice.
# Further, to remove the mast cells, centrifugation was carried out at 13,000 rpm for 15 minutes at 4° C. and the supernatant was recovered.
# This supernatant was used as a sample for diazotation in HPLC analysis.
# An equal amount of 20 mM p-nitroaniline hydrochloric acid solution and 200 mM sodium nitrite aqueous solution were mixed well (diazo reagent).
# To 10 μl of the diazo reagent, 20 μl of the foregoing sample for (histamine) diazotation was added and mixed well by using a vortex mixer.
# Further, 30 μl of sodium carbonate ethanol solution was added and mixed well by using a vortex mixer.
# This solution (20 μl) was used in HPLC analysis.
# (c) The analysis of histamine was carried out by the diazotation method (Specific Determination of Histamine in Fish by High-performance Liquid Chromatography after Diazo Coupling: Biosci. Biotech. Biochem. 59 (7) 1208-1210 (1995)).
# (4) The results of the inhibitory effects on histamine release from mast cells of a specified concentration of <1> adenosine, <2> guanosine, <3> cytidine, <4> uridine, <5> adenosine monophosphate (AMP), <6> adenosine diphosphate (ADP), <7> adenosine triphosphate (ATP) (<1> to <7> substances were from Wako Pure Chemical Industries, Ltd.), <8> adenosine derived from Phellinus linteus (described later as Compound A), <9> N-hydroxy-N-methyl-adenosine derived from Phellinus linteus (described later as Compound B), and <10> a commercially available histamine inhibitor (brand name: Intal, major component: sodium cromoglycate, manufacturer: Fujisawa Pharmaceutical Co., Ltd.) are shown in Table 2. The inhibition ratios shown in Table 2 are mean values of three measurement values in each case.
# The value of inhibition ratio was calculated from the following calculation formula.
# Calculation Formula: (1−(peak integral value of sample)/(peak integral value of control))×100
# [1] = Rattus norvegicus, Mast cell, sample concentration 5 μg/ml, read-out: Inhibition Ratio (%)
# [2] = Rattus norvegicus, Mast cell, read-out: Inhibition Ratio (%)
Compound,inhibition at 5 µg/mL [1] [%],inhibition at 10 µg/mL [2] [%],further results
"Nc1ncnc2c1ncn2[C@@H]1O[C@H](CO)[C@@H](O)[C@H]1O [Adenosine derived from Phellinus linteus, adenosine]",41.5,–,–
"Nc1ncnc2c1ncn2[C@@H]1O[C@H](COP(=O)(O)OP(=O)(O)O)[C@@H](O)[C@H]1O [Adenosine diphosphate, adenosine 5′-diphosphate]",–,47.8,–
"Nc1ncnc2c1ncn2[C@@H]1O[C@H](COP(=O)(O)O)[C@@H](O)[C@H]1O [Adenosine monophosphate, adenosine 5′-monophosphate]",–,54.9,–
"Nc1ncnc2c1ncn2[C@@H]1O[C@H](COP(=O)(O)OP(=O)(O)OP(=O)(O)O)[C@@H](O)[C@H]1O [Adenosine triphosphate, adenosine 5′-triphosphate]",–,40,–
Nc1ncnc2c1ncn2[C@@H]1O[C@H](CO)[C@@H](O)[C@H]1O [Adenosine],–,–,"inhibition at 1 µg/mL (Rattus norvegicus, Mast cell, sample concentration 1 μg/ml, read-out: Inhibition Ratio (%)): 27.5%; inhibition at 20 µg/mL (Rattus norvegicus, Mast cell, sample concentration 20 μg/ml, read-out: Inhibition Ratio (%)): 59.3%; inhibition at 50 µg/mL (Rattus norvegicus, Mast cell, sample concentration 50 μg/ml, read-out: Inhibition Ratio (%)): 74.7%; Inhibition Ratio (%) (sample concentration 5 μg/ml): 43.8%"
Nc1ccn([C@@H]2O[C@H](CO)[C@@H](O)[C@H]2O)c(=O)n1 [Cytidine],38,–,–
Nc1nc2c(ncn2[C@@H]2O[C@H](CO)[C@@H](O)[C@H]2O)c(=O)[nH]1 [Guanosine],39,–,–
CN(O)c1ncnc2c1ncn2[C@@H]1O[C@H](CO)[C@@H](O)[C@H]1O [N-hydroxy-N-methyl-adenosine],27,–,–
O=c1ccn([C@@H]2O[C@H](CO)[C@@H](O)[C@H]2O)c(=O)[nH]1 [Uridine],34,–,–
